Type in all cases: ADME, organism-based
Data set [1] in a line: Volume of distribution at steady state in intact female rat at 2 mg/kg, iv. More on the design: dose 2 mg/kg, route intravenous. The following applies: in vivo, read-out: Vdss.
A short description of data set [2]: Tmax in intact female rat at 5 mg/kg, po. More on the design: dose 5 mg/kg, route oral. The following applies: in vivo.
Data set [3] is described as follows: Cmax in ovariectomised female rat at 5 mg/kg, po. More on the design: dose 5 mg/kg, route oral. The following applies: in vivo.
Data set [4] is described as follows: AUC (0 to infinity) in intact female rat at 2 mg/kg, iv. As to conditions: plasma. More on the design: time infinity, dose 2 mg/kg, route intravenous.
Data set [5] is described as follows: Cmax in male rat at 10 mg/kg, po. More on the design: dose 10 mg/kg, route oral. The following applies: in vivo.
Data set [6] can be described thus: AUC (0 to infinity) in ovariectomised female rat at 5 mg/kg, po. More on the design: dose 5 mg/kg, route oral, time infinity. The following applies: plasma.
Data set [7] is described as follows: Tmax in male rat at 10 mg/kg, po. More on the design: dose 10 mg/kg, route oral. The following applies: in vivo.
Data set [8] can be described thus: AUC (0 to infinity) in male rat at 10 mg/kg, po. More on the design: time infinity, dose 10 mg/kg, route oral. The following applies: plasma.
A short description of data set [9]: AUC (0 to infinity) in intact female rat at 5 mg/kg, po. More on the design: time infinity, dose 5 mg/kg, route oral. As to conditions: plasma.
A short description of data set [10]: Tmax in ovariectomised female rat at 5 mg/kg, po. The following applies: in vivo. More on the design: dose 5 mg/kg, route oral.
Data set [11] is described as follows: Ratio of drug level from brain to plasma in ovariectomised female rat. The following applies: read-out: BPR.
The nature of data set [12]: Volume of distribution at steady state in ovariectomised female rat at 2 mg/kg, iv. The following applies: in vivo, read-out: Vdss. More on the design: dose 2 mg/kg, route intravenous.
A short description of data set [13]: Cmax in intact female rat at 5 mg/kg, po. More on the design: dose 5 mg/kg, route oral. The following applies: in vivo.
Data set [14] can be described thus: Oral bioavailability in intact female rat at 5 mg/kg. The following applies: in vivo.
Data set [15] is described as follows: AUC (0 to infinity) in ovariectomised female rat at 2 mg/kg, iv. More on the design: time infinity, dose 2 mg/kg, route intravenous. The following applies: plasma.
A short description of data set [16]: Oral bioavailability in male rat at 10 mg/kg. The following applies: in vivo.
The nature of data set [17]: Oral bioavailability in ovariectomised female rat at 5 mg/kg. The following applies: in vivo.
Data set [18] in a line: Volume of distribution at steady state in male rat at 2 mg/kg, iv. More on the design: dose 2 mg/kg, route intravenous. The following applies: in vivo, read-out: Vdss.
Data set [19] can be described thus: AUC (0 to infinity) in male rat at 2 mg/kg, iv. More on the design: time infinity, dose 2 mg/kg, route intravenous. The following applies: plasma.

`CNC[C@@H](O)CCN1c2ccccc2N(c2ccccc2F)S1(=O)=O`: the Vd in data set [1] was found to be 11.3 L/kg; in [12], 25.3 L/kg; in [18] it was 36.3 L/kg. The Tmax (as a rule, the time at which the peak concentration occurs) in data set [2] turned out to be 0.56 h; in data set [7], 1.38 h; in data set [10], 1.63 h. The Cmax (in general, the maximum level reached in the sampled fluid or tissue) turned out to be 125 ng/mL in [3], 154 ng/mL in [5] and 135 ng/mL in data set [13]. Also, the AUC(0-inf) (usually total exposure, with the tail of the curve extrapolated) in data set [4] is 929 ng·h/mL; in [6] it was 1200 ng·h/mL; in data set [8], 1040 ng·h/mL; in data set [9], 959 ng·h/mL; in data set [15], 505 ng·h/mL; in data set [19], 199 ng·h/mL. Also, in data set [11], the Kp came out at 3.6. The bioavailability (usually the share of a dose that reaches the circulation, judged against a reference dose that is usually intravenous) is 41.3% in [14], 100% in data set [16] and 95.2% in data set [17].

Source of the values: ChEMBL document CHEMBL1155515, “Discovery of novel selective norepinephrine reuptake inhibitors: 4-[3-aryl-2,2-dioxido-2,1,3-benzothiadiazol-1(3H)-yl]-1-(methylamino)butan-2-ols (WYE-103231)” (J Med Chem, 2010).
